Measurements as given in US8741906B2 (priority 2011, dated 2014).
Read-outs that look alike come from different tables or passages of the source.

Legend:
human CB1 receptors = biological target: T1, human CB1 receptors (Homo sapiens, UniProt P21554); assay: functional cAMP assay, human CB1; type: cell-based
T1 construct: expressed in transfected cells; host or cells: CHO cells
Protocol: (§1) CHO cells expressing human CB1 or CB2 receptors are seeded 17-24 hours prior to the experiment 50.000 cells per well in a black 96 well plate with flat clear bottom (Corning Costar #3904) in DMEM (Invitrogen No. 31331), 1×HT supplement, with 10% fetal calf serum and incubated at 5% CO2 and 37° C. in a humidified incubator. The growth medium was exchanged with Krebs Ringer Bicarbonate buffer with 1 mM IBMX and incubated at 30° C. for 30 min. Compounds were added to a final assay volume of 100 μl and incubated for 30 min at 30° C. Using the cAMP-Nano-TRF detection kit the assay (Roche Diagnostics) was stopped by the addition of 50 μl lysis reagent (Tris, NaCl, 1.5% Triton X100, 2.5% NP40, 10% NaN3) and 50 μl detection solutions (20 μM mAb Alexa700-cAMP 1:1, and 48 μM Ruthenium-2-AHA-cAMP) and shaken for 2 h at room temperature. The time-resolved energy transfer is measured by a TRF reader (Evotec Technologies GmbH), equipped with a ND:YAG laser as excitation source. The plate is measured twice with the excitation at 355 nm and at the emission with a delay of 100 ns and a gate of 100 ns, total exposure time 10 s at 730 (bandwidth 30 nm) or 645 nm (bandwidth 75 nm), respectively. The FRET signal is calculated as follows: FRET=T730-Alexa730-P(T645-B645) with P=Ru730-B730/Ru645-B645, where T730 is the test well measured at 730 nM, T645 is the test well measured at 645 nm, B730 and B645 are the buffer controls at 730 nm and 645 nm, respectively. cAMP content is determined from the function of a standard curve spanning from 10 μM to 0.13 nM cAMP.
(§2) EC50 values were determined using Activity Base analysis (ID Business Solution, Limited). The EC50 values for a wide range of cannabinoid agonists generated from this assay were in agreement with the values published in the scientific literature.

human CB2 receptors = biological target: T2, human CB2 receptors (Homo sapiens, UniProt P34972); assay: functional cAMP assay, human CB2; type: cell-based
T2 construct: expressed in transfected cells; host or cells: CHO cells
T2 sequence (P34972 whole entry): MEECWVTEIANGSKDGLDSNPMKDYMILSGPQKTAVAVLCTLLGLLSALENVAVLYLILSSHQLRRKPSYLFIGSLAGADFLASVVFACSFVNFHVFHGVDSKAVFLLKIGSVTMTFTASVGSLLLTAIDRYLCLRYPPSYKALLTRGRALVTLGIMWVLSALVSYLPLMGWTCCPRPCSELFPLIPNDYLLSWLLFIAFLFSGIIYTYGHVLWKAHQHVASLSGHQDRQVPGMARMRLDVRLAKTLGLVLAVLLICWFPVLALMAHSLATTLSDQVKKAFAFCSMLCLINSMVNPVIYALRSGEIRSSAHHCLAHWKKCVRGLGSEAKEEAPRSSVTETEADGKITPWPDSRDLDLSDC
Protocol: as §1, §2

[1] = CHO cells expressing human CB1, cAMP, read-out: human CB1 EC50
[2] = CHO cells expressing human CB2, cAMP, read-out: human CB2 EC50

T1 sequence (P21554 whole entry): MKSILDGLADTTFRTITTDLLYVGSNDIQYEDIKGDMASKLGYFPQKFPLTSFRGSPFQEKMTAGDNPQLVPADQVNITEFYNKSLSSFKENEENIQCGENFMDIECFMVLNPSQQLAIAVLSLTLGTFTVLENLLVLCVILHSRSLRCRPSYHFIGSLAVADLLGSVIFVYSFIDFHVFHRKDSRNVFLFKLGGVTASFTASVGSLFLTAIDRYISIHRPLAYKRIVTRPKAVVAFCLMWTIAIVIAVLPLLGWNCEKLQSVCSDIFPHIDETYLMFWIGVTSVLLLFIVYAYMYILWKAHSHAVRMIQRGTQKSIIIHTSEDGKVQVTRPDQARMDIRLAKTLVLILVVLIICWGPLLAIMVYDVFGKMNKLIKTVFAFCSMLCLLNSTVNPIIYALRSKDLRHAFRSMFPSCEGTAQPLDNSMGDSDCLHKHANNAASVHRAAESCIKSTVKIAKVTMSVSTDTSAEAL

Row | Structure (SMILES) | EC50 (human CB1 receptors; [1]) [nM] | EC50 (human CB2 receptors; [2]) [nM] | EC50 (human CB1 receptors) [nM] | EC50 (human CB2 receptors) [nM]
1 | CC(C)(C)c1nc(N2CC[C@H](O)C2)c2nnn(Cc3ccccc3Cl)c2n1 [Example 26, (S)-1-[5-tert-Butyl-3-(2-chloro-benzyl)-3H-[1,2,3]triazolo[4,5-d]pyrimidin-7-yl]-pyrrolidin-3-ol] | 866 | 1.1 | – | –
2 | CC(C)(C)c1nc(N2CC[C@@H](O)C2)c2nnn(Cc3ccccc3Cl)c2n1 [Example 27, (R)-1-[5-tert-Butyl-3-(2-chloro-benzyl)-3H-[1,2,3]triazolo[4,5-d]pyrimidin-7-yl]-pyrrolidin-3-ol] | > 10000 | 5.1 | – | –
3 | COC1CCN(c2nc(C(C)(C)C)nc3c2nnn3Cc2ccccc2Cl)C1 (stereo not shown) [Example 28, 5-tert-Butyl-3-(2-chloro-benzyl)-7-(3-methoxy-pyrrolidin-1-yl)-3H-[1,2,3]triazolo[4,5-d]pyrimidine] | > 10000 | 11.2 | – | –
4 | CC(C)(C)c1nc(N2CCCC2(C)C)c2nnn(Cc3ccccc3Cl)c2n1 [Example 29, 5-tert-Butyl-3-(2-chloro-benzyl)-7-(2,2-dimethyl-pyrrolidin-1-yl)-3H-[1,2,3]triazolo[4,5-d]pyrimidine] | 1630 | 12.5 | – | –
5 | CC1CCCN1c1nc(C(C)(C)C)nc2c1nnn2Cc1ccccc1Cl (stereo not shown) [Example 30, 5-tert-Butyl-3-(2-chloro-benzyl)-7-(2-methyl-pyrrolidin-1-yl)-3H-[1,2,3]triazolo[4,5-d]pyrimidine] | > 10000 | 26.9 | – | –
6 | CC(C)(C)c1nc(N2CCC3(COC3)C2)c2nnn(Cc3ccccc3Cl)c2n1 [Example 31, 5-tert-Butyl-3-(2-chloro-benzyl)-7-(2-oxa-6-aza-spiro[3.4]oct-6-yl)-3H-[1,2,3]triazolo[4,5-d]pyrimidine] | 1260 | 9.8 | – | –
7 | CC(C)(C)c1nc(N2CCC(O)CC2)c2nnn(Cc3ccccc3Cl)c2n1 [Example 32, 1-[5-tert-Butyl-3-(2-chloro-benzyl)-3H-[1,2,3]triazolo[4,5-d]pyrimidin-7-yl]-piperidin-4-ol] | > 10000 | 20.7 | – | –
8 | CC(C)(C)c1nc(N2CCC[C@H](O)C2)c2nnn(Cc3ccccc3Cl)c2n1 [Example 33, (S)-1-[5-tert-Butyl-3-(2-chloro-benzyl)-3H-[1,2,3]triazolo[4,5-d]pyrimidin-7-yl]-piperidin-3-ol] | 764 | 2.5 | – | –
9 | CC(C)(C)c1nc(N2CCC[C@@H](O)C2)c2nnn(Cc3ccccc3Cl)c2n1 [Example 34, (R)-1-[5-tert-Butyl-3-(2-chloro-benzyl)-3H-[1,2,3]triazolo[4,5-d]pyrimidin-7-yl]-piperidin-3-ol] | 2270 | 27.5 | – | –
10 | CC(C)(C)c1nc(N2CCC23COC3)c2nnn(Cc3ccccc3Cl)c2n1 [Example 35, 5-tert-Butyl-3-(2-chloro-benzyl)-7-(6-oxa-1-aza-spiro[3.3]hept-1-yl)-3H-[1,2,3]triazolo[4,5-d]pyrimidine] | > 10000 | 3.6 | – | –
11 | CC(C)(C)c1nc(N2CC[C@H](F)C2)c2nnn(Cc3ccccc3Cl)c2n1 [Example 36, 5-tert-Butyl-3-(2-chloro-benzyl)-7-((S)-3-fluoro-pyrrolidin-1-yl)-3H-[1,2,3]triazolo[4,5-d]pyrimidine] | 432 | 0.6 | – | –
12 | CC(C)(C)c1nc(N2CCC[C@@H]2CO)c2nnn(Cc3ccccc3Cl)c2n1 [Example 37, {(R)-1-[5-tert-Butyl-3-(2-chloro-benzyl)-3H-[1,2,3]triazolo[4,5-d]pyrimidin-7-yl]-pyrrolidin-2-yl}-methanol] | 492 | 0.3 | – | –
13 | CC(C)(C)c1nc(N2CCC[C@H]2CO)c2nnn(Cc3ccccc3Cl)c2n1 [Example 38, {(S)-1-[5-tert-Butyl-3-(2-chloro-benzyl)-3H-[1,2,3]triazolo[4,5-d]pyrimidin-7-yl]-pyrrolidin-2-yl}-methanol] | 361 | 18.2 | – | –
14 | CC(C)(C)c1nc(N2CCCCO2)c2nnn(Cc3ccccc3Cl)c2n1 [Example 39, 5-tert-Butyl-3-(2-chloro-benzyl)-7-[1,2]oxazinan-2-yl-3H-[1,2,3]triazolo[4,5-d]pyrimidine] | 1330 | 7.9 | – | –
15 | CC(C)(C)c1nc(N2CCCO2)c2nnn(Cc3ccccc3Cl)c2n1 [Example 40, 5-tert-Butyl-3-(2-chloro-benzyl)-7-isoxazolidin-2-yl-3H-[1,2,3]triazolo[4,5-d]pyrimidine] | > 10000 | 11.6 | – | –
16 | CC(C)(C)c1nc(N2CC2)c2nnn(Cc3ccccc3Cl)c2n1 [Example 41, 7-Aziridin-1-yl-5-tert-butyl-3-(2-chloro-benzyl)-3H-[1,2,3]triazolo[4,5-d]pyrimidine] | – | – | 1220 | 36.5
17 | CC(C)(C)c1nc(N2CC[C@@H](F)C2)c2nnn(Cc3ccccc3Cl)c2n1 [Example 42, 5-tert-Butyl-3-(2-chloro-benzyl)-7-((R)-3-fluoro-pyrrolidin-1-yl)-3H-[1,2,3]triazolo[4,5-d]pyrimidine] | 991 | 0.3 | – | –
18 | CC(C)(C)c1nc(N2CC(F)(F)C(F)(F)C2)c2nnn(Cc3ccccc3Cl)c2n1 [Example 43, 5-tert-Butyl-3-(2-chloro-benzyl)-7-(3,3,4,4-tetrafluoro-pyrrolidin-1-yl)-3H-[1,2,3]triazolo[4,5-d]pyrimidine] | 626 | 1.2 | – | –
19 | COC[C@H]1CCCN1c1nc(C(C)(C)C)nc2c1nnn2Cc1ccccc1Cl [Example 44, 5-tert-Butyl-3-(2-chloro-benzyl)-7-((R)-2-methoxymethyl-pyrrolidin-1-yl)-3H-[1,2,3]triazolo[4,5-d]pyrimidine] | > 10000 | 1 | – | –
20 | COC[C@@H]1CCCN1c1nc(C(C)(C)C)nc2c1nnn2Cc1ccccc1Cl [Example 45, 5-tert-Butyl-3-(2-chloro-benzyl)-7-((S)-2-methoxymethyl-pyrrolidin-1-yl)-3H-[1,2,3]triazolo[4,5-d]pyrimidine] | > 10000 | 52.2 | – | –
21 | CC(C)(C)c1nc(N2C[C@@H](F)C[C@H]2C#N)c2nnn(Cc3ccccc3Cl)c2n1 [Example 46, (2S,4S)-1-[5-tert-Butyl-3-(2-chloro-benzyl)-3H-[1,2,3]triazolo[4,5-d]pyrimidin-7-yl]-4-fluoro-pyrrolidine-2-carbonitrile] | 2310 | 4.4 | – | –
22 | CC(C)(C)c1nc(N2CCCS2(=O)=O)c2nnn(Cc3ccccc3Cl)c2n1 [Example 47, 5-tert-Butyl-3-(2-chloro-benzyl)-7-(1,1-dioxo-1λ6-isothiazolidin-2-yl)-3H-[1,2,3]triazolo[4,5-d]pyrimidine] | > 10000 | 20.2 | – | –
23 | CC(C)(C)c1nc(N2CCOCC2CO)c2nnn(Cc3ccccc3Cl)c2n1 (stereo not shown) [Example 48, {4-[5-tert-Butyl-3-(2-chloro-benzyl)-3H-[1,2,3]triazolo[4,5-d]pyrimidin-7-yl]-morpholin-3-yl}-methanol] | > 10000 | 8.3 | – | –
24 | CC(C)(C)c1nc(N2CCC[C@@H]2C#N)c2nnn(Cc3ccccc3Cl)c2n1 [Example 49, (R)-1-[5-tert-Butyl-3-(2-chloro-benzyl)-3H-[1,2,3]triazolo[4,5-d]pyrimidin-7-yl]-pyrrolidine-2-carbonitrile] | 155 | 1.1 | – | –
25 | CC(C)(C)c1nc(N2CCC[C@H]2C#N)c2nnn(Cc3ccccc3Cl)c2n1 [Example 50, (S)-1-[5-tert-Butyl-3-(2-chloro-benzyl)-3H-[1,2,3]triazolo[4,5-d]pyrimidin-7-yl]-pyrrolidine-2-carbonitrile] | 139 | 1 | – | –
26 | CC(C)(C)c1nc(N2CC[C@H](O)[C@@H]2CO)c2nnn(Cc3ccccc3Cl)c2n1 [Example 51, (2S,3S)-1-[5-tert-Butyl-3-(2-chloro-benzyl)-3H-[1,2,3]triazolo[4,5-d]pyrimidin-7-yl]-2-hydroxymethyl-pyrrolidin-3-ol] | > 10000 | 2.4 | – | –
27 | CC(C)(C)c1nc(N2CC[C@@H](O)[C@@H]2CO)c2nnn(Cc3ccccc3Cl)c2n1 [Example 52, (2S,3R)-1-[5-tert-Butyl-3-(2-chloro-benzyl)-3H-[1,2,3]triazolo[4,5-d]pyrimidin-7-yl]-2-hydroxymethyl-pyrrolidin-3-ol] | > 10000 | 20.8 | – | –
28 | CC(C)(C)c1nc(N2CCCC23COC3)c2nnn(Cc3ccccc3Cl)c2n1 [Example 53, 5-tert-Butyl-3-(2-chloro-benzyl)-7-(2-oxa-5-aza-spiro[3.4]oct-5-yl)-3H-[1,2,3]triazolo[4,5-d]pyrimidine] | > 10000 | 15 | – | –
29 | CC1(O)CCN(c2nc(C(C)(C)C)nc3c2nnn3Cc2ccccc2Cl)C1 (stereo not shown) [Example 54, 1-[5-tert-Butyl-3-(2-chloro-benzyl)-3H-[1,2,3]triazolo[4,5-d]pyrimidin-7-yl]-3-methyl-pyrrolidin-3-ol] | > 10000 | 2.8 | – | –
